For the first test, the system named is A549. Nature of the test: A549 assay: screening of cancer cell growth inhibiting compound. Type of test: cell-based. The conditions noted are these: Homo sapiens, 72 h; A549 cells, three days, WST-8; read-out: A549 IC50. The protocol: Screening of Cancer Cell Growth Inhibiting Compound
A cell suspension solution (RERF-LC-AI, A549: 1×10^4/ml, MRC5: 3×10^4/ml and 1×10^5/ml) adjusted to an appropriate concentration with D-MEM (hereinafter, referred to as a culture solution and manufactured by Nacalai Tesque Inc.) supplemented with 10% FBS (HyClone) was added to the wells of a 96-well plate (hereinafter, well plate) at a rate of 100 μL/well and incubated in a CO2 incubator at 37° C. for a day. […] Next, cells were added to each well of the well plate prepared and the above compound dilution solution was added at a rate of 100 μL/well to obtain 200 μL/well. Thereafter, the cells were incubated in the CO2 incubator at 37° C. for further three days. To each well of the well plate, 10 μL of a WST-8 kit (Kishida Chemical Co., Ltd.) solution for counting the number of cells was added and a color reaction was performed in the CO2 incubator for 1 to 4 hours. After the absorbance at 450 nm (reference wavelength: 620 nm) was measured by a microplate reader, suppressing action of the test substance was calculated based on the absorbance value in the absence of a test substance.
For orientation: IC50 means the point on the concentration scale where inhibition reaches its midpoint. As to `CC(C)CNc1nc(-c2ccsc2)cn2c(-c3ccc(C(=O)NC4CC4)cc3)cnc12` [Example 1-103], the IC50 fell in the range of 0.5 to 1 µM. Same read-out and setting: in the case of `CC(C)CNc1nc(-c2cccc(C#N)c2)cn2c(-c3ccc(C(=O)NC4CC4)cc3)cnc12` [Example 1-106] it was 0.5 to 1 µM; in that of `CC(C)CNc1nc(-c2cccnc2)cn2c(-c3ccc(C(=O)NC4CC4)cc3)cnc12` [Example 1-107], 0.5 to 1 µM; in that of `CC(C)CNc1nc(C2=CCCC2)cn2c(-c3ccc(C(=O)NC4CC4)cc3)cnc12` [Example 1-108], 1 to 10 µM. Same read-out and setting: in the case of `CC(C)CNc1nc(-c2ccc3occc(=O)c3c2)cn2c(-c3ccc(C(=O)NC4CC4)cc3)cnc12` [Example 1-110] it was 0.5 to 1 µM; in that of `CC(C)CNc1nc(-c2ccncc2)cn2c(-c3ccc(C(=O)NC4CC4)cc3)cnc12` [Example 1-111], 0.05 to 0.5 µM. Still for that read-out and setting: next, `CC(C)CNc1nc(-c2ccc(N)cc2)cn2c(-c3ccc(C(=O)NC4CC4)cc3)cnc12` [Example 1-114]: 0.05 to 0.5 µM. For the molecule `CC(C)CNc1nc(-c2ccc(S(=O)(=O)N3CCCC3)cc2)cn2c(-c3ccc(C(=O)NC4CC4)cc3)cnc12` [Example 1-115], the half-maximal inhibitory concentration (IC50) lay in the range of 1 to 10 µM. Still for that read-out and setting: in the case of `CC(C)CNc1nc(-c2ccc(S(=O)(=O)C(C)C)cc2)cn2c(-c3ccc(C(=O)NC4CC4)cc3)cnc12` [Example 1-116] it was 0.5 to 1 µM; in that of `CC(C)CNc1nc(-c2ccc(OCCN3CCOCC3)cc2)cn2c(-c3ccc(C(=O)NC4CC4)cc3)cnc12` [Example 1-117], 1 to 10 µM; in that of `CC(C)CNc1nc(-c2ccc(NC(=O)NCc3ccco3)cc2)cn2c(-c3ccc(C(=O)NC4CC4)cc3)cnc12` [Example 1-118], 0.5 to 1 µM. Regarding `CC(C)CNc1nc(-c2ccc(CNS(C)(=O)=O)cc2)cn2c(-c3ccc(C(=O)NC4CC4)cc3)cnc12` [Example 1-119], the half-maximal inhibitory concentration (IC50) is 0.5 to 1 µM. Same read-out and setting: in the case of `CC(C)CNc1nc(-c2ccc(O)c(Cl)c2)cn2c(-c3ccc(C(=O)NC4CC4)cc3)cnc12` [Example 1-120] it was 1 to 10 µM; in that of `CC(C)CNc1nc(-c2ccc(NC(=O)N3CCCC3)cc2)cn2c(-c3ccc(C(=O)NC4CC4)cc3)cnc12` [Example 1-121], 0.5 to 1 µM; in that of `CC(C)CNc1nc(-c2cccc(C(=O)NCCCN(C)C)c2)cn2c(-c3ccc(C(=O)NC4CC4)cc3)cnc12` [Example 1-122], 1 to 10 µM. On the same count and under the same terms, next, `CC(C)CNc1nc(-c2ccccc2N)cn2c(-c3ccc(C(=O)NC4CC4)cc3)cnc12` [Example 1-123]: 0.05 to 0.5 µM. Same read-out and setting: next, `CC(C)CNc1nc(-c2cccc(N)c2)cn2c(-c3ccc(C(=O)NC4CC4)cc3)cnc12` [Example 1-124]: 0.5 to 1 µM; `CC(C)CNc1nc(-c2ccc(C(=O)c3ccccc3)cc2)cn2c(-c3ccc(C(=O)NC4CC4)cc3)cnc12` [Example 1-125]: 1 to 10 µM. In the case of `CC(C)CNc1nc(-c2cccc(CN3CCOCC3)c2)cn2c(-c3ccc(C(=O)NC4CC4)cc3)cnc12` [Example 1-127], the IC50 was in the range of 1 to 10 µM. Same read-out and setting: in the case of `CC(C)CNc1nc(-c2cccc(C(=O)NCCCN3CCN(C)CC3)c2)cn2c(-c3ccc(C(=O)NC4CC4)cc3)cnc12` [Example 1-138] it was 1 to 10 µM; in that of `CC(C)CNc1nc(-c2cccc(C(=O)NCCN3CCOCC3)c2)cn2c(-c3ccc(C(=O)NC4CC4)cc3)cnc12` [Example 1-139], 0.5 to 1 µM; in that of `COCCNC(=O)c1cccc(-c2cn3c(-c4ccc(C(=O)NC5CC5)cc4)cnc3c(NCC(C)C)n2)c1` [Example 1-140], 0.05 to 0.5 µM. Take `CC(C)CNc1nc(-c2cccc(C(=O)NCCS(C)(=O)=O)c2)cn2c(-c3ccc(C(=O)NC4CC4)cc3)cnc12` [Example 1-141]: the IC50 was 1 to 10 µM. On the same count and under the same terms, next, `CC(C)CNc1nc(-c2cccc(C(N)=O)c2)cn2c(-c3ccc(C(=O)NC4CC4)cc3)cnc12` [Example 1-143]: 0.5 to 1 µM. Turning to `CC(C)CNc1nc(-c2cccc(C(=O)N3CCN(C)CC3)c2)cn2c(-c3ccc(C(=O)NC4CC4)cc3)cnc12` [Example 1-144], the IC50 lay in the range of 1 to 10 µM.

Turning to `CC(C)CNc1nc(-c2ccc(C(=O)NCCN3CCOCC3)cc2)cn2c(-c3ccc(C(=O)NC4CC4)cc3)cnc12` [Example 1-147], the IC50 is 1 to 10 µM. Same read-out and setting: in the case of `COCCNC(=O)c1ccc(-c2cn3c(-c4ccc(C(=O)NC5CC5)cc4)cnc3c(NCC(C)C)n2)cc1` [Example 1-148] it was 0.5 to 1 µM; in that of `CC(C)CNc1nc(-c2ccc(C(=O)NCCS(C)(=O)=O)cc2)cn2c(-c3ccc(C(=O)NC4CC4)cc3)cnc12` [Example 1-149], 1 to 10 µM. In the case of `CC(C)CNc1nc(-c2ccc(C(N)=O)cc2)cn2c(-c3ccc(C(=O)NC4CC4)cc3)cnc12` [Example 1-151], the IC50 is 0.05 to 0.5 µM.

`CC(C)CNc1nc(-c2ccc(C(=O)N3CCOCC3)cc2)cn2c(-c3ccc(C(=O)NC4CC4)cc3)cnc12` [Example 1-153]: the IC50 is 1 to 10 µM. Still for that read-out and setting: next, `CC(C)CNc1nc(-c2cccc(NC(=O)N3CCN(C)CC3)c2)cn2c(-c3ccc(C(=O)NC4CC4)cc3)cnc12` [Example 1-154]: 1 to 10 µM; `CC(C)CNc1nc(-c2cccc(NC(=O)N3CCOCC3)c2)cn2c(-c3ccc(C(=O)NC4CC4)cc3)cnc12` [Example 1-155]: 1 to 10 µM.

As to `COCC(=O)Nc1cccc(-c2cn3c(-c4ccc(C(=O)NC5CC5)cc4)cnc3c(NCC(C)C)n2)c1` [Example 1-156], the IC50 is 0.5 to 1 µM. Take `CC(=O)Nc1cccc(-c2cn3c(-c4ccc(C(=O)NC5CC5)cc4)cnc3c(NCC(C)C)n2)c1` [Example 1-157]: the IC50 was in the range of 0.5 to 1 µM. On the same count and under the same terms, next, `CC(C)CNc1nc(-c2cccc(NC(=O)CCCN3CCOCC3)c2)cn2c(-c3ccc(C(=O)NC4CC4)cc3)cnc12` [Example 1-158]: 0.5 to 1 µM; `CC(C)CNc1nc(-c2cccc(NC(=O)[C@@H](N)CO)c2)cn2c(-c3ccc(C(=O)NC4CC4)cc3)cnc12` [Example 1-159]: 1 to 10 µM.

Turning to `CC(C)CNc1nc(-c2ccc(NC(=O)N3CCN(C)CC3)cc2)cn2c(-c3ccc(C(=O)NC4CC4)cc3)cnc12` [Example 1-160], the half-inhibitory concentration (IC50) was 1 to 10 µM. As for `CC(C)CNc1nc(-c2ccc(NC(=O)N3CCOCC3)cc2)cn2c(-c3ccc(C(=O)NC4CC4)cc3)cnc12` [Example 1-161], the concentration for half-maximal inhibition (IC50) is 1 to 10 µM. The same measure, in the same setting: in the case of `COCC(=O)Nc1ccc(-c2cn3c(-c4ccc(C(=O)NC5CC5)cc4)cnc3c(NCC(C)C)n2)cc1` [Example 1-162] it was 1 to 10 µM. The same measure, in the same setting: in the case of `CC(=O)Nc1ccc(-c2cn3c(-c4ccc(C(=O)NC5CC5)cc4)cnc3c(NCC(C)C)n2)cc1` [Example 1-163] it was 0.5 to 1 µM; in that of `CC(C)CNc1nc(-c2cccc(NCCCN)c2)cn2c(-c3ccc(C(=O)NC4CC4)cc3)cnc12` [Example 1-166], 1 to 10 µM. Turning to `CC(C)CNc1nc(-c2cccc(NC3CCOCC3)c2)cn2c(-c3ccc(C(=O)NC4CC4)cc3)cnc12` [Example 1-167], the 50% inhibitory concentration (IC50) was 0.5 to 1 µM.

As for `CC(C)CNc1nc(-c2cccc(NCC3CCN(C)CC3)c2)cn2c(-c3ccc(C(=O)NC4CC4)cc3)cnc12` [Example 1-168], the IC50 lay in the range of 0.5 to 1 µM. For the molecule `CC(C)CNc1nc(-c2ccc(NCCCN)cc2)cn2c(-c3ccc(C(=O)NC4CC4)cc3)cnc12` [Example 1-169], the IC50 was in the range of 1 to 10 µM. On to `CC(C)CNc1nc(-c2ccc(NC3CCOCC3)cc2)cn2c(-c3ccc(C(=O)NC4CC4)cc3)cnc12` [Example 1-170], for which the IC50 lay within 1 to 10 µM. On to `CC(C)CNc1nc(CCc2ccc(C(=O)O)cc2)cn2c(-c3ccc(C(=O)NC4CC4)cc3)cnc12` [Example 1-175], for which the IC50 was in the range of 0.05 to 0.5 µM. The same measure, in the same setting: next, `O=C(NC1CC1)c1ccc(-c2cnc3c(NCC4CCOCC4)nc(-c4ccsc4)cn23)cc1` [Example 1-177]: 0.05 to 0.5 µM; `O=C(NC1CC1)c1ccc(-c2cnc3c(NCC4CCOCC4)nc(-c4ccncc4)cn23)cc1` [Example 1-179]: 0.05 to 0.5 µM; `C/C=C/c1cn2c(-c3ccc(C(=O)NC4CC4)cc3)cnc2c(NCC2CCOCC2)n1` [Example 1-243]: 0.5 to 1 µM.

With `N#Cc1ccc(-c2cn3c(-c4ccc(C(=O)NC5CC5)cc4)cnc3c(NCC3CCOCC3)n2)cn1` [Example 1-244], the IC50 was 0.05 to 0.5 µM.

As for `N#Cc1ccc(-c2cn3c(-c4ccc(C(=O)NC5CC5)cc4)cnc3c(NCC3CCOCC3)n2)c(N)c1` [Example 1-245], the IC50 fell in the range of 0.05 to 0.5 µM. Regarding `N#Cc1ccc(-c2cn3c(-c4ccc(C(=O)NC5CC5)cc4)cnc3c(NCC3CCOCC3)n2)cc1F` [Example 1-246], the IC50 was 0.05 to 0.5 µM. Consider `O=C(NC1CC1)c1ccc(-c2cnc3c(NCC4CCOCC4)nc(C4=CCNCC4)cn23)cc1` [Example 1-247], for which the IC50 lay in the range of 1 to 10 µM.

Staying with this test, now noted: Homo sapiens, A549, 72 h, read-out: A549 IC50 (μM).
`O=C(NC1CC1)c1ccc(-c2cnc3c(NCC4CCOCC4)nccn23)cc1` [Example 1-1, N-cyclopropyl-4-(8-((tetrahydro-2H-pyran-4-yl)methylamino)imidazo[1,2-a]pyrazin-3-yl)benzamide]: the half-inhibitory concentration (IC50) lay in the range of 1 to 10 µM. For the molecule `O=C(NC1CC1)c1ccc(-c2cnc3c(NCC4CC4)nccn23)cc1` [Example 1-36], the IC50 fell in the range of 1 to 10 µM. Same read-out and setting: in the case of `CCCNc1nccn2c(-c3ccc(C(=O)NC4CC4)cc3)cnc12` [Example 1-37] it was 1 to 10 µM. Same read-out and setting: next, `CC(C)CCNc1nccn2c(-c3ccc(C(=O)NC4CC4)cc3)cnc12` [Example 1-43]: 1 to 10 µM. The same measure, in the same setting: next, `CC(C)CNc1nc(-c2ccccc2)cn2c(-c3ccc(C(=O)NC4CC4)cc3)cnc12` [Example 1-101]: 0.5 to 1 µM.

The record behind these values is patent US20120059162A1, “FUSED IMIDAZOLE DERIVATIVE HAVING TTK INHIBITORY ACTION” (Oncotherapy Science, Inc., priority 2009, published 2012).
